Values after ≈ are worked out from the molar mass of the structure shown. Where two headings read alike, the source gives them in different places. Where a SMILES comes first, the peptide text is derived from it. The star is where a group is joined. X1 = CC1(C)C(/C=C/C=C/C=C2/N(CCCCS(=O)(=O)O)c3ccc(S(=O)(=O)O)cc3C2(C)C)=[N+](CCCCCC(=O)NCCN2C(=O)CC(*)C2=O)c2ccc(S(=O)(=O)[O-])cc21; X2 = CC1(C)C(=CC=CC=CC2=[N+](CCCCS(=O)(=O)[O-])c3ccc(S(=O)(=O)O)cc3C2(C)C)N(CCCCCC(=O)NCCN2C(=O)CC(*)C2=O)c2ccc(S(=O)(=O)O)cc21
How the values were obtained:
LogP = format: physicochemical; details: as previously described (refs 27, 31, 36)
Method: (§1) Determination of the chemical and photophysical properties (LogP, solubility, serum binding, net charge, and brightness) was performed as previously described.

Solubility = format: physicochemical; details: as previously described (refs 27, 31, 36)
Method: as §1

Serum binding = format: in vitro ADME; details: as previously described (refs 27, 31, 36)
Method: as §1

P0 = target: T1, P0 (Rattus norvegicus, UniProt P06907); test: P0 affinity (KD) via flow cytometry saturation binding; details: saturation binding on P0-expressing RT4 D6P2T Schwannoma cells, flow cytometry (APC-A), 0–2000 nM, triplicate, repeated at least two times per tracer
T1 construct: performed using P0-expressing RT4 D6P2T cells; host or cells: RT4 D6P2T myelinating Schwannoma cells
T1 sequence (P06907 30-248): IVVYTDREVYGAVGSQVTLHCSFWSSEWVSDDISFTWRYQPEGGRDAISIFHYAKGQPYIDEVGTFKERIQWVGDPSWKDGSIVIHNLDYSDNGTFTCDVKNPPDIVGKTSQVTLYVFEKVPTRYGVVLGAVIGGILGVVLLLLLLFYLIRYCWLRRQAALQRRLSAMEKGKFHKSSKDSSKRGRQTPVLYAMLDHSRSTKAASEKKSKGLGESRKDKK
Method: The mean fluorescence intensity values per sample were measured using an LSRII flow cytometer (BD Biosciences, Franklin Lakes, NJ, USA) with APC-A settings (635 nm laser and 750 nm long-pass filter) for a Cy5 dye. […] For the affinity assessment, fluorescence was measured using a FACSCanto II flow cytometry device (BD Biosciences, Franklin Lakes, NJ, USA) in the APC-A channel, and the accompanying FlowJo^TM v5 software (BD Biosciences, Franklin Lakes, NJ, USA) was used for further analysis.
Saturation binding experiments were performed for each of the fluorescent peptides in a concentration range of 0–2000 nM. All measurements were performed in triplicate, and experiments were repeated at least two times per tracer. The fluorescence was measured using a FACSCanto II flow cytometry device (BD Biosciences) in the APC-A channel, and the accompanying FlowJo software was used for further analysis. KD assessment was performed using the normalized geometric means, which were fitted with equations in GraphPad Prism 5 software.
A statistical evaluation to compare the affinity (KD) was performed using unpaired Student’s t-test. Values of p < 0.05 were considered significant.

Brightness (in HSA) = format: physicochemical, human
Method: as §1

| Structure (SMILES) | LogP (LogP; read-out: LogP) | Solubility (Solubility) [µM] | fraction unbound (Serum binding) | Kd (P0) [nM] | increase in brightness versus lead Cy5-P0_101–125 (Brightness (in HSA); in HSA) | Brightness (in HSA) (Brightness (in HSA); in human serum albumin) | LogP (LogP) | Solubility (Solubility; listed as Cy5P0_112–125) |
| --- | --- | --- | --- | --- | --- | --- | --- | --- |
| CC[C@H](C)[C@H](NC(=O)[C@H](CC(=O)O)NC(=O)[C@@H]1CCCN1C(=O)[C@@H]1CCCN1C(=O)[C@H](CC(N)=O)NC(=O)[C@H](CCCCN)NC(C)=O)C(=O)N[C@@H](CSC1CC(=O)N(CCNC(=O)CCCCC[N+]2=C(/C=C/C=C/C=C3/N(CCCCS(=O)(=O)O)c4ccc(S(=O)(=O)O)cc4C3(C)C)C(C)(C)c3cc(S(=O)(=O)[O-])ccc32)C1=O)C(N)=O (some centres unmarked) [Cy5-P0_101–106] (Ac-KNPPDIC(X1)-NH2) | -0.95 ± 0.05 | >400 | 0.53 | – | – | – | – | – |
| CC[C@H](C)[C@H](NC(=O)[C@H](CC(=O)O)NC(=O)[C@@H]1CCCN1C(=O)[C@@H]1CCCN1C(=O)[C@H](CC(N)=O)NC(=O)[C@H](CCCCN)NC(C)=O)C(=O)N[C@H](C(=O)NCC(=O)N[C@@H](CCCCN)C(=O)N[C@H](C(=O)N[C@@H](CSC1CC(=O)N(CCNC(=O)CCCCC[N+]2=C(/C=C/C=C/C=C3/N(CCCCS(=O)(=O)O)c4ccc(S(=O)(=O)O)cc4C3(C)C)C(C)(C)c3cc(S(=O)(=O)[O-])ccc32)C1=O)C(N)=O)[C@@H](C)O)C(C)C (some centres unmarked) [Cy5-P0_101–110] (Ac-KNPPDIVGKTC(X1)-NH2) | -0.73 ± 0.12 | >400 | 0.45 | > 1000 | – | – | – | – |
| CC[C@H](C)[C@H](NC(=O)[C@H](CC(=O)O)NC(=O)[C@@H]1CCCN1C(=O)[C@@H]1CCCN1C(=O)[C@H](CC(N)=O)NC(=O)[C@H](CCCCN)NC(C)=O)C(=O)N[C@H](C(=O)NCC(=O)N[C@@H](CCCCN)C(=O)N[C@H](C(=O)N[C@@H](CO)C(=O)N[C@@H](CCC(N)=O)C(=O)N[C@H](C(=O)N[C@H](C(=O)N[C@@H](CC(C)C)C(=O)N[C@@H](CSC1CC(=O)N(CCNC(=O)CCCCC[N+]2=C(/C=C/C=C/C=C3/N(CCCCS(=O)(=O)O)c4ccc(S(=O)(=O)O)cc4C3(C)C)C(C)(C)c3cc(S(=O)(=O)[O-])ccc32)C1=O)C(N)=O)[C@@H](C)O)C(C)C)[C@@H](C)O)C(C)C (some centres unmarked) [Cy5-P0_101–115] (Ac-KNPPDIVGKTSQVTLC(X1)-NH2) | -0.8 ± 0.16 | >400 | 0.4 | > 1000 | – | – | – | – |
| CC[C@H](C)[C@H](NC(=O)[C@H](CC(=O)O)NC(=O)[C@@H]1CCCN1C(=O)[C@@H]1CCCN1C(=O)[C@H](CC(N)=O)NC(=O)[C@H](CCCCN)NC(C)=O)C(=O)N[C@H](C(=O)NCC(=O)N[C@@H](CCCCN)C(=O)N[C@H](C(=O)N[C@@H](CO)C(=O)N[C@@H](CCC(N)=O)C(=O)N[C@H](C(=O)N[C@H](C(=O)N[C@@H](CC(C)C)C(=O)N[C@@H](Cc1ccc(O)cc1)C(=O)N[C@H](C(=O)N[C@@H](Cc1ccccc1)C(=O)N[C@@H](CCC(=O)O)C(=O)N[C@@H](CCCCN)C(=O)N[C@@H](CSC1CC(=O)N(CCNC(=O)CCCCCN2C(=CC=CC=CC3=[N+](CCCCS(=O)(=O)[O-])c4ccc(S(=O)(=O)O)cc4C3(C)C)C(C)(C)c3cc(S(=O)(=O)O)ccc32)C1=O)C(N)=O)C(C)C)[C@@H](C)O)C(C)C)[C@@H](C)O)C(C)C (some centres unmarked) [Cy5-P0_101–120] (Ac-KNPPDIVGKTSQVTLYVFEKC(X2)-NH2; N-terminus and C-terminus assumed) | -0.99 ± 0.1 | 15 (≈ 49.4 µg/mL) | 0.34 | – | twofold increase in brightness | 137,940 | – | – |
| CC(=O)NCC(=O)N[C@@H](CCCCN)C(=O)N[C@H](C(=O)N[C@@H](CO)C(=O)N[C@@H](CCC(N)=O)C(=O)N[C@H](C(=O)N[C@H](C(=O)N[C@@H](CC(C)C)C(=O)N[C@@H](Cc1ccc(O)cc1)C(=O)N[C@H](C(=O)N[C@@H](Cc1ccccc1)C(=O)N[C@@H](CCC(=O)O)C(=O)N[C@@H](CCCCN)C(=O)N[C@H](C(=O)N1CCC[C@H]1C(=O)N[C@H](C(=O)N[C@@H](CCCNC(=N)N)C(=O)N[C@@H](Cc1ccc(O)cc1)C(=O)N[C@@H](CSC1CC(=O)N(CCNC(=O)CCCCC[N+]2=C(/C=C/C=C/C=C3/N(CCCCS(=O)(=O)O)c4ccc(S(=O)(=O)O)cc4C3(C)C)C(C)(C)c3cc(S(=O)(=O)[O-])ccc32)C1=O)C(N)=O)[C@@H](C)O)C(C)C)C(C)C)[C@@H](C)O)C(C)C)[C@@H](C)O (some centres unmarked) [Cy5-P0_108–125] (Ac-GKTSQVTLYVFEKVPTRYC(X1)-NH2) | – | – | 0.31 | 83 | – | – | −1.34 + 0.03 | – |
| CC(=O)N[C@@H](CCC(N)=O)C(=O)N[C@H](C(=O)N[C@H](C(=O)N[C@@H](CC(C)C)C(=O)N[C@@H](Cc1ccc(O)cc1)C(=O)N[C@H](C(=O)N[C@@H](Cc1ccccc1)C(=O)N[C@@H](CCC(=O)O)C(=O)N[C@@H](CCCCN)C(=O)N[C@H](C(=O)N1CCC[C@H]1C(=O)N[C@H](C(=O)N[C@@H](CCCNC(=N)N)C(=O)N[C@@H](Cc1ccc(O)cc1)C(=O)N[C@@H](CSC1CC(=O)N(CCNC(=O)CCCCC[N+]2=C(/C=C/C=C/C=C3/N(CCCCS(=O)(=O)O)c4ccc(S(=O)(=O)O)cc4C3(C)C)C(C)(C)c3cc(S(=O)(=O)[O-])ccc32)C1=O)C(N)=O)[C@@H](C)O)C(C)C)C(C)C)[C@@H](C)O)C(C)C (some centres unmarked) [Cy5-P0_112–125] (Ac-QVTLYVFEKVPTRYC(X1)-NH2) | – | 71 (≈ 197 µg/mL) | – | 69 | – | – | −1.08 + 0.03 | relatively low solubility |
| CC(=O)N[C@@H](Cc1ccc(O)cc1)C(=O)N[C@H](C(=O)N[C@@H](Cc1ccccc1)C(=O)N[C@@H](CCC(=O)O)C(=O)N[C@@H](CCCCN)C(=O)N[C@H](C(=O)N1CCC[C@H]1C(=O)N[C@H](C(=O)N[C@@H](CCCNC(=N)N)C(=O)N[C@@H](Cc1ccc(O)cc1)C(=O)N[C@@H](CSC1CC(=O)N(CCNC(=O)CCCCC[N+]2=C(/C=C/C=C/C=C3/N(CCCCS(=O)(=O)O)c4ccc(S(=O)(=O)O)cc4C3(C)C)C(C)(C)c3cc(S(=O)(=O)[O-])ccc32)C1=O)C(N)=O)[C@@H](C)O)C(C)C)C(C)C (some centres unmarked) [Cy5-P0_116–125] (Ac-YVFEKVPTRYC(X1)-NH2) | – | 150 (≈ 350 µg/mL) | – | 147 ± 80 | – | – | −1.58 + 0.03 | – |
| CC(=O)N[C@@H](CCCCN)C(=O)N[C@H](C(=O)N1CCC[C@H]1C(=O)N[C@H](C(=O)N[C@@H](CCCNC(=N)N)C(=O)N[C@@H](Cc1ccc(O)cc1)C(=O)N[C@@H](CSC1CC(=O)N(CCNC(=O)CCCCC[N+]2=C(/C=C/C=C/C=C3/N(CCCCS(=O)(=O)O)c4ccc(S(=O)(=O)O)cc4C3(C)C)C(C)(C)c3cc(S(=O)(=O)[O-])ccc32)C1=O)C(N)=O)[C@@H](C)O)C(C)C (some centres unmarked) [Cy5-P0_120–125] (Ac-KVPTRYC(X1)-NH2) | – | 150 (≈ 269 µg/mL) | 0.29 | – | – | – | −1.59 + 0.01 | – |

Source: article PMC10296720, “A Truncated 14-Amino-Acid Myelin Protein-Zero-Targeting Peptide for Fluorescence-Guided Nerve-Preserving Surgery” (Biomolecules, 2023)
